Data published in US6852696B2, “Inhibitors of glycosaminoglycans” (The University of Texas System, priority 1999, dated 2005).
“Also recorded” adds a separate entry of the source.

How the values were obtained:
Langerhans cells (LC) [1] = assay: Hapten (DNFB)-triggered LC emigration from the epidermis; type: in vivo, BALB/c mice; conditions: two local injections before DNFB
Method: FIG. 3. Impact of multimeric Pep-1 derivatives on hapten-induced LC migration. BALB/c mice received two local injections of the indicated Pep-1 derivatives in the right ear (closed circles) and the indicated RP derivatives in the left ear 24 and 3 hours before topical application of 0.5% DNFB on both ears. All the peptides were administered at the identical dose in terms of the molarity ([…]) of the 16-mer Pep-1 peptide sequence, i.e., 40 μg/injection/ear for monomeric Pep-1 and RP, […] for dimeric Pep-1 and RP, or 160 μg/injection/ear for PEG-conjugated tetrameric Pep-1 and RP. Ear skin samples were harvested at the indicated time points after DNFB painting and examined for surface densities of IA^+ LC. Data shown are the means+/−s.e.m.(n=3) of % LC emigration as calculated by dividing from the formula: [(LC number before DNFB application−LC number after DNFB application)/LC number before DNFB application]×100. Asterisks indicate statistically significant differences between the Pep-1 and the RP panels (**p<0.01 by two-tailed Student's t-test).
Pep-1 and its dimeric and tetrameric derivatives were compared for their in vivo activities to prevent hapten-triggered LC emigration from the epidermis.

[2] = tested on: XS52 DC and HDK-1 T cells; assay: Cytokine secretion in XS52 DC / HDK-1 T cell / KLH co-culture (ELISA); type: cell-based; conditions: 500 μg/ml; dose-dependent
Method: FIGS. 7A-C. Impact of tetrameric LIP on cytokine production during antigen presentation. (FIG. 7A) XS52 DC (0.2×10^6 cells/well) were cultured in the presence or absence of the KLH-reactive CD4^+ Thl clone HDK-1 (0.2×10^6 cells/well) and/or KLH (100 μg/ml). Culture supernatants collected at 24 hrs were examined for the indicated cytokines by ELISA. Data shown are the means+/−s.e.m. from triplicate samples. (FIG. 7B) XS52 DC and HDK-1 T cells were co-cultured with KLH in the presence of the indicated concentrations of Pep-1. Culture supernatants collected at 24 hrs were examined for the indicated cytokines by ELISA. (FIG. 7C) CD4^+ T cells isolated from DO11.10 transgenic mice (5×10^4 cells/well) were co-cultured with the indicated numbers of splenic DC isolated from BALB/c mice and the OVA peptide (2 μg/ml) in the presence of 500 μg/ml of Pep-1 (open circles), RP (triangles), or DMSO alone (closed circles). Co-cultures of CD4^+ T cells and DC in the absence of OVA peptide served as a control (square). All the cultures were examined for ^3H-thymidine uptake on Day 3. Data shown are the means+/−s.d. from triplicate samples.
During antigen-specific interaction DC delivers activation signals to T cells, leading to differentiation and clonal expansion of antigen-reactive T cells. At the same time, T cells deliver signals back to DC, leading to “terminal maturation” of DC^80. To test the potential impact of Pep-1 on this bi-directional DC-T cell interaction, the present inventors employed a fully characterized in vitro experimental system in which XS52 DC are cultured with a KLH-reactive CD4^+ Th1 clone HDK-1 in the presence of antigen (KLH)^81-85.

HA = conditions: co-pending application 60/126,475; cited from earlier work
Langerhans cells (LC) [3] = assay: DNFB-induced LC maturation (CD86 expression by IA+ epidermal cells); type: in vivo, BALB/c mice; conditions: two local injections, 40 μg/injection/ear, 24 and 3 hours before DNFB
Excerpt: FIGS. 6A-C. Impact of Pep-1 on hapten-induced LC maturation. (FIG. 6A) Epidermal cells isolated from BALB/c mice at 17 hr after topical application of 0.5% DNFB or vehicle alone were double-stained with FITC-conjugated anti-IA mAb and PE-conjugated anti-CD86 mAb. Data shown are representative two-color FACS profiles, documenting marked elevated surface expression of CD86 by IA^+ epidermal cells (i.e., LC) after DNFB application. (FIG. 6B) BALB/c mice received subcutaneous two local injections of Pep-1 or RP (40 μg/injection/ear) 24 and 3 hours before topical application of 0.5% DNFB and epidermal cells were isolated 17 hr later to examine the expression levels of CD86 on LC. […] (FIG. 6C) Graphical representation of the % CD86^+ cells/IA^+ LC from three independent experiments described in (FIG. 6B) with circles, triangles, and squares showing corresponding pairs in each experiment. Bars represent the mean values (n=3) and the asterisk indicates statistically significant difference between the Pep-1 and the RP panels (*p<0.03 by the Mann-Whitney U test).
A critical question concerns the physiological significance of the above finding. Topical application of haptens is known to trigger not only LC migration from the epidermis, but also their maturation. […]

B16-F10 melanoma cells = assay: Experimentally induced lung metastasis of i.v. infused B16-F10 melanoma cells; type: in vivo, C57BL/6 mice; conditions: simultaneous i.v. injection with B16-F10 cells
Method: FIGS. 4A-C. Impact of Pep-1 on lung metastasis of melanoma. (FIG. 4A) B16-F10 melanoma cells were suspended (4×10^5 cells/ml) in PBS containing Pep-1 monomer (2 or 3 mg/ml) (circles) or 2% DMSO alone (triangles). C57BL/6 mice received i.v. injection of these cell suspensions (500 μl/animal) and were examined for survival. Data shown are the cumulative survival curves from four independent experiments (n=37 for Pep-1 and n=20 for PBS control). […] (FIG. 4B) B16-F10 melanoma cells (1×10^5 cells/animal) were s.c. injected into the back of C57BL/6 mice. Pep-1 or RP (40 μg/injection) was injected locally into the tumor inoculation sites 0. 3. and 6 days after tumor injection. Data shown are the means+/−s.e.m. (n=10) of tumor sizes and tumor weights measured 10 days after tumor inoculation. (FIG. 4C) B16-F10 melanoma cells (2×10^5 cells/well) were cultured in the presence of the indicated concentrations of Pep-1 (closed circles) or PR (open circles). Data shown are the means+/−s.e.m.(n=3) of ^3H-thymidine uptake at 24 hr.
In the model, melanoma cells and Pep-1 (or random peptide control or PBS alone) were injected together intravenously into syngeneic C57BL/6 mice and lung metastasis was examined macroscopically and by following-up the survival of mice. […] The inventors will also examine the prophylactic and therapeutic potentials of multimeric Pep-1 formulations and other chemically modified Pep-1 derivatives using this animal model of melanoma metastasis.

Sequence: GAHWQFNALTVR [Pep-1]
- inhibition of LC emigration (Langerhans cells (LC) [1]; 24 hr after DNFB application): inhibited LC emigration almost completely
- inhibition of LC emigration (Langerhans cells (LC) [1]; 48 hr after DNFB application): kinetics comparable to those observed in the control group receiving random peptide (RP) injections
- inhibition of LC emigration (Langerhans cells (LC) [1]; 72 hr after DNFB application): kinetics comparable to those observed in the control group receiving random peptide (RP) injections
- inhibition of IL-6 secretion [2]: almost complete inhibition
- inhibition of TNFα secretion [2]: almost complete inhibition
- inhibition of interferon-γ secretion [2]: almost complete inhibition
- binding to HA (HA): specific binding to soluble, immobilized, and cell-associated forms of HA
- prevention of DNFB-induced LC maturation (CD86 up-regulation) (Langerhans cells (LC) [3]): prevented this DNFB-induced LC maturation; also recorded: is prevented
- survival of recipient animals (B16-F10 melanoma cells): prolonged the survival of recipient animals significantly
- survival of recipient animals (B16-F10 melanoma cells; listed as Pep-1 monomer): Statistically significant difference (p<0.01 by the log-rank test)
- extent of lung metastasis (B16-F10 melanoma cells; vs RP control): reduced the extent of lung metastasis significantly
